{
  "source": "patent US12286442B2",
  "about": "“Methods and materials for increasing transcription factor eb polypeptide levels” (University of Pittsburgh—Of the Commonwealth System of …, priority 2019, dated 2025)",
  "key": {"TFEB [1]": {"tested_on": "TFEB", "experiment": "Confocal imaging of TFEB localization in MLE12 cells stably expressing TFEB-EGFP", "type": "cell-based, murine", "conditions": "dose dependent, 18 hours / 24 hours", "description": "(§1) FIGS. 2A-C. BC1753 increases TFEB polypeptide levels. A. The structure of BC1753 is provided. B. MLE12 cells stably expressing TFEB-EGFP were treated with the indicated amounts of BC1753 for 24 hours before immunoblotting for TFEB-GFP and β-actin. C. MLE12 cells stably expressing TFEB-EGFP were treated with the indicated amounts of BC1753 for 24 hours before imaging by confocal microscopy (scale bar=10 μm).\n(§2) BC1753 (FIG. 2A) was tested for its ability to increase TFEB polypeptide levels. Briefly, murine lung epithelial cells (MLE12) stably expressing TFEB-EGFP were treated with BC1753 in a dose dependent manner for 18 hours. Cells were then collected and assayed by immunoblotting for TFEB-GFP protein levels (FIG. 2B). Murine lung epithelial cells (MLE12) stably expressing TFEB-EGFP were treated with […] in a dose dependent manner for 18 hours. Cells were then fixed with 4% PFA followed by DAPI staining. TFEB localization was imaged on the GFP channel along with the DAPI signal using a Nikon A1 confocal microscope (FIG. 2C)."}, "TFEB [2]": {"tested_on": "TFEB", "experiment": "Immunoblotting for TFEB-GFP protein levels in MLE12 cells stably expressing TFEB-EGFP", "type": "cell-based, murine", "conditions": "dose dependent, 18 hours / 24 hours", "description": "as §1, §2"}},
  "note": "“Also recorded” adds a separate entry of the source.",
  "data": [
    {"smiles": "COc1ccc(-n2c(=O)c3ccc(C(=O)NCCc4ccccc4)cc3n(CC(=O)Nc3ccc(C)cc3)c2=O)cc1", "note": "[BC1753]", "values": [
      {"measurement": "nuclear TFEB polypeptide accumulation (confocal microscopy)", "setting": "TFEB [1]", "result": "increased"},
      {"measurement": "total TFEB polypeptide levels within cells (TFEB-GFP immunoblot)", "setting": "TFEB [2]", "result": "increases; also recorded: drastically increased"}
    ]}
  ]
}
